Reference: paper PMC6920847, “2-Hydroxy-N-phenylbenzamides and Their Esters Inhibit Acetylcholinesterase and Butyrylcholinesterase” (Biomolecules, 2019)
Like-named read-outs stand apart in the source and are kept apart here.

What was measured:
[1] = biological target: T1, BuChE from equine serum (EqBuChE) (Equus caballus, UniProt P81908); test: Inhibition of BuChE, modified Ellman's spectrophotometric method; format: biochemical; details: mean ± SD, n = three experiments
T1 construct: butyrylcholinesterase was from an equine serum; purchased Sigma-Aldrich (Prague, Czech Republic); host or cells: equine serum (natural source)
T1 sequence (P81908 whole entry): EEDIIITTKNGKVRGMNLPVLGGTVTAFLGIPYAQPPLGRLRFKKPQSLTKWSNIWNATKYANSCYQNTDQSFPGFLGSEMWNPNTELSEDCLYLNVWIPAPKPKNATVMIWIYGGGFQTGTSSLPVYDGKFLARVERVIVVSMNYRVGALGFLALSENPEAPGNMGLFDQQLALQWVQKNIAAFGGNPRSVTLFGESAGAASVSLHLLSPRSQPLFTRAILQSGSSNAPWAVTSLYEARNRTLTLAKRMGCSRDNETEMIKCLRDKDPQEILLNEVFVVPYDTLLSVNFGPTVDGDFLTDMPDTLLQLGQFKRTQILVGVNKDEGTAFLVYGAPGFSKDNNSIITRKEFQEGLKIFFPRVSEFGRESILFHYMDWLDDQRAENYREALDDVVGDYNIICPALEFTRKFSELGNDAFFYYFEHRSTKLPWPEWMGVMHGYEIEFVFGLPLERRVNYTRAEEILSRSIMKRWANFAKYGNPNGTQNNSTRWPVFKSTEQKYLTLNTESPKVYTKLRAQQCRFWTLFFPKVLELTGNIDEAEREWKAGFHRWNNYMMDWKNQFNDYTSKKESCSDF
Description: (§1) The IC50 values were determined using the spectrophotometric Ellman’s method modified according to Zdražilová et al., which is a simple, rapid and direct method to determine the SH and -S-S- group content in proteins. This method is widely used for the screening of the efficiency of cholinesterases inhibitors. The enzymatic activity is measured indirectly by quantifying the concentration of the 5-thio-2-nitrobenzoic acid ion formed in the reaction between the thiol reagent 5,5′-dithio-bis(2-nitrobenzoic acid) and thiocholine, a product of substrate hydrolysis (i.e., acetylthiocholine; ATCH) by cholinesterases.
(§2) The enzyme activity in final reaction mixture (2000 µL) was 0.2 U/mL, concentration of acetylthiocholine (or butyrylthiocholine, BTCH) 40 µM and concentration of 5,5′-dithio-bis(2-nitrobenzoic acid) 0.1 mM for all reactions. The tested compounds were dissolved in DMSO and then diluted in demineralized water to the concentration of 1 µM. […] All measurements were carried in triplicate and the average values of reaction rate (v0-uninhibited reaction, vi-inhibited reaction) were used for construction of the dependence v0/vi vs. concentration of inhibitor. From obtained equation of regression curve, the value of IC50 was calculated (based on the definition of IC50).
(§3) Acetylcholinesterase was obtained from electric eel (Electrophorus electricus L.) and butyrylcholinesterase was from an equine serum.
(§4) Thirty-six benzamides 1–4l were evaluated as potential inhibitors of AChE from electric eel (EeAChE) and BuChE from equine serum (EqBuChE) using Ellman’s spectrophotometric method modified according to Zdražilová et al.. Their efficacy is expressed as IC50, i.e., the concentration required for 50% inhibition of the enzymatic activity. Based on inhibition of both cholinesterases, we calculated selectivity indexes (SI) as the ratio of IC50 value for AChE/IC50 value for BuChE to express the selectivity quantitatively (Table 1).

[2] = biological target: T2, AChE from electric eel (EeAChE) (Electrophorus electricus, UniProt O42275); test: Inhibition of AChE, modified Ellman's spectrophotometric method; format: biochemical, electric eel (Electrophorus electricus L.); details: for Selectivity AChE/BuChE: SI = IC50 for AChE/IC50 for BuChE, SI lower than 1 means selectivity for AChE
T2 construct: Acetylcholinesterase was obtained from electric eel (Electrophorus electricus L.); purchased Sigma-Aldrich (Prague, Czech Republic); host or cells: electric eel (natural source)
T2 sequence (O42275 24-633): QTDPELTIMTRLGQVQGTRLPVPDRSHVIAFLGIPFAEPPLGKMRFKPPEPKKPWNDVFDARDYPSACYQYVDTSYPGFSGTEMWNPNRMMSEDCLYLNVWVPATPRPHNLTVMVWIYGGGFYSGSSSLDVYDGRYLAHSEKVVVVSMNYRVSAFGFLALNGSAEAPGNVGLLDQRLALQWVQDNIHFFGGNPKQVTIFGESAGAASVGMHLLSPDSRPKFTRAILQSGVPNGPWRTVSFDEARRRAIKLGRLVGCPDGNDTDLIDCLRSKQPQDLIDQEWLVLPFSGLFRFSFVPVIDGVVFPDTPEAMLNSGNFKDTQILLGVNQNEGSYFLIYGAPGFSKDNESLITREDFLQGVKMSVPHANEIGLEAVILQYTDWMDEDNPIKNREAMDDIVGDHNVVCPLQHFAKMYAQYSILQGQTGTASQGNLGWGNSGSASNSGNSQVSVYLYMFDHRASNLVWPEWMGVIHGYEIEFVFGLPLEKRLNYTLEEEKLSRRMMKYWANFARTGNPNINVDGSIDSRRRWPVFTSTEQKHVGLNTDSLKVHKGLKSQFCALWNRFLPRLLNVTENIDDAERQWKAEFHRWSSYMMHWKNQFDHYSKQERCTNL
Description: as §1, §2, §3, §4

[3] = mean ± SD, n = three experiments, read-out: IC50 (EeAChE)

Structure (SMILES) | IC50 ([1]; read-out: IC50 (EqBuChE)) [µM] | Selectivity AChE/BuChE [2] | IC50 [2, 3] [µM] | IC50 ([1]; IC50 (EqBuChE)) [µM] | IC50 [2] [µM]
O=C1c2ccc(Cl)cc2OP(=S)(c2ccccc2)N1c1ccc(C(F)(F)F)cc1 (racemic) [Compound 5e, (RS)-7-Chloro-2-phenyl-3-[4-(trifluoromethyl)phenyl]-3-hydrobenzo[e][1,3,2]oxazaphosphinin-4-one 2-sulfide] | 170 ± 13.6 | 0.37 | 63.5 ± 1.41 |  | 
O=C(Nc1cccc(Br)c1)c1cc(Br)ccc1O [Compound 4f] |  | 0.48 |  | 146 ± 3.53 | 69.7 ± 9.97
O=C(Nc1cc(C(F)(F)F)cc(C(F)(F)F)c1)c1cc(Br)ccc1O [Compound 4l] |  | 0.91 |  | 53.5 ± 3.2 | 48.5 ± 1.07
O=C(Nc1cccc(F)c1)c1ccc(Cl)cc1O [Compound 3h] |  | 0.42 |  | 146 ± 4.07 | 60.8 ± 1.74
O=C(Nc1cccc(C(F)(F)F)c1)c1cc(Br)ccc1O [Compound 4j, 5-bromo-2-hydroxy-N-[3-(trifluoromethyl)phenyl]benzamide] |  | 0.36 |  | 117 ± 2.23 | 42.67 ± 0.18
O=C1c2ccc(Cl)cc2OP(=O)(c2ccccc2)N1c1ccc(C(F)(F)F)cc1 (racemic) [Compound 5d, (RS)-7-Chloro-2-phenyl-3-[4-(trifluoromethyl)phenyl]-3-hydrobenzo[e][1,3,2]oxazaphosphinin-4-one 2-oxide] | 25 ± 0.3 | 1.93 | 48.1 ± 1.7 |  | 
O=C(Nc1ccc(Cl)cc1)c1cc(Br)ccc1O [Compound 4b] |  | 0.66 |  | 131 ± 3.99 | 85.8 ± 6.1
O=C(Nc1cccc(Br)c1)c1ccc(Cl)cc1O [Compound 3f] | 168 ± 2.06 | 0.36 | 60.03 ± 0.42 |  | 
O=C(Nc1ccc(F)cc1)c1cc(Br)ccc1O [Compound 4i] |  | 0.45 |  | 137 ± 1.47 | 61.2 ± 1.08
O=C(Nc1cccc(Cl)c1)c1cc(Br)ccc1O [Compound 4a] |  | 0.46 |  | 134 ± 1.63 | 62 ± 6.48
O=C(Nc1cccc(Br)c1)c1cc(Cl)ccc1O [Compound 2f] |  | 0.35 |  | 141 ± 1.13 | 50.03 ± 0.15
O=C(Nc1cc(C(F)(F)F)cc(C(F)(F)F)c1)c1cc(Cl)ccc1O [Compound 2l] | 64.4 ± 1.34 | 0.78 | 50.2 ± 0.88 |  | 
O=C(Nc1cc(Cl)c(Cl)c(Cl)c1)c1cc(Cl)ccc1O [Compound 2e, 5-Chloro-N-(3,4,5-trichlorophenyl)-2-hydroxybenzamide] | 102.7 ± 0.97 | 0.50 | 51.06 ± 0.49 |  | 
O=C(Nc1ccc(Cl)cc1)c1ccc(Cl)cc1O [Compound 3b] |  | 0.37 |  | 152 ± 3.13 | 56.2 ± 3.23
O=C(Nc1ccc(Br)cc1)c1ccc(Cl)cc1O [Compound 3g] |  | 0.34 |  | 174 ± 4.02 | 58.3 ± 1.57
O=C(Nc1cc(Cl)c(Cl)c(Cl)c1)c1ccc(Cl)cc1O [Compound 3e, 4-Chloro-N-(3,4,5-trichlorophenyl)-2-hydroxybenzamide] | 132 ± 4.31 | 0.44 | 57.8 ± 4.05 |  | 
O=C(Nc1cc(Cl)cc(Cl)c1)c1cc(Cl)ccc1O [Compound 2d, 5-Chloro-N-(3,5-dichlorophenyl)-2-hydroxybenzamide] | 112 ± 7.98 | 0.41 | 46.2 ± 0.63 |  | 
O=C(Nc1cc(Cl)cc(Cl)c1)c1ccc(Cl)cc1O [Compound 3d, 4-Chloro-N-(3,5-dichlorophenyl)-2-hydroxybenzamide] | 141 ± 2.8 | 0.36 | 50.15 ± 0.26 |  | 
O=C(Nc1ccc(Br)cc1)c1cc(Cl)ccc1O [Compound 2g] | 119 ± 6.65 | 0.49 | 58.2 ± 4.87 |  | 

Structure (SMILES) | IC50 ([1]; read-out: IC50 (EqBuChE)) [µM] | Selectivity AChE/BuChE [2] | IC50 [2, 3] [µM] | IC50 ([1]; IC50 (EqBuChE)) [µM] | IC50 [2] [µM]
O=C(Nc1ccc(F)cc1)c1ccc(Cl)cc1O [Compound 3i] |  | 0.41 |  | 152 ± 7.58 | 62.8 ± 1.53
O=C(Nc1cccc(Cl)c1)c1ccc(Cl)cc1O [Compound 3a] |  | 0.43 |  | 134.3 ± 0.24 | 58.1 ± 1.2
O=C(Nc1ccc(C(F)(F)F)cc1)c1cc(Br)ccc1O [Compound 4k] |  | 0.33 |  | 134.8 ± 0.86 | 44.8 ± 3.44
O=C(Nc1cccc(F)c1)c1cc(Cl)ccc1O [Compound 2h] |  | 0.38 |  | 154 ± 8.38 | 58.6 ± 3.98
O=C(Nc1ccc(Cl)c(Cl)c1)c1cc(Br)ccc1O [Compound 4c] | 123 ± 7.2 | 0.50 | 60.8 ± 3.65 |  | 
O=C(Nc1cccc(C(F)(F)F)c1)c1ccc(Cl)cc1O [Compound 3j] |  | 0.42 |  | 163 ± 11.7 | 68.3 ± 3.78
O=C(Nc1ccccc1)c1ccccc1O [Compound 1, salicylanilide] | 206 ± 12.1 | 0.24 | 49.7 ± 3.73 |  | 
O=C(Nc1cccc(Cl)c1)c1cc(Cl)ccc1O [Compound 2a] | 228 ± 11.3 | 0.26 | 59.5 ± 3.8 |  | 
O=C(Nc1ccc(F)cc1)c1cc(Cl)ccc1O [Compound 2i] |  | 0.36 |  | 133 ± 15.8 | 48.3 ± 8.9
O=C(Nc1cccc(F)c1)c1cc(Br)ccc1O [Compound 4h] |  | 0.46 |  | 119 ± 2.53 | 54.4 ± 0.73
O=C(Nc1ccc(C(F)(F)F)cc1)c1ccc(Cl)cc1O [Compound 3k, 4-chloro-2-hydroxy-N-[4-(trifluoromethyl)phenyl]benzamide] |  | 0.30 |  | 200 ± 2.02 | 60.3 ± 2.39
O=C(Nc1cc(Cl)cc(Cl)c1)c1cc(Br)ccc1O [Compound 4d, 5-Bromo-N-(3,5-dichlorophenyl)-2-hydroxybenzamide] | 135.9 ± 0.14 | 0.24 | 33.1 ± 0.47 |  | 
O=C(Nc1ccc(Cl)cc1)c1cc(Cl)ccc1O [Compound 2b] |  | 0.45 |  | 170 ± 3.09 | 76.5 ± 2.17
O=C(Nc1ccc(Cl)c(Cl)c1)c1ccc(Cl)cc1O [Compound 3c] | 100 ± 1.15 | 0.46 | 46.3 ± 0.56 |  | 
O=C(Nc1cccc(C(F)(F)F)c1)c1cc(Cl)ccc1O [Compound 2j] |  | 0.45 |  | 120 ± 3.02 | 54.41 ± 0.25
O=C(Nc1cc(Cl)c(Cl)c(Cl)c1)c1cc(Br)ccc1O [Compound 4e, 5-Bromo-N-(3,4,5-trichlorophenyl)-2-hydroxybenzamide] | 140 ± 6.2 | 0.30 | 42.1 ± 2.41 |  | 
O=C(Nc1ccc(Br)cc1)c1cc(Br)ccc1O [Compound 4g] | 112 ± 1.79 | 0.63 | 70.3 ± 2.85 |  | 
O=C(Nc1cc(C(F)(F)F)cc(C(F)(F)F)c1)c1ccc(Cl)cc1O [Compound 3l] | 150.5 ± 0.87 | 0.36 | 54.7 ± 2.05 |  | 
O=C(Nc1ccc(Cl)c(Cl)c1)c1cc(Cl)ccc1O [Compound 2c] | 186 ± 15.7 | 0.33 | 60.8 ± 6.88 |  | 
